SMILES strings stand for the structures.

In the assay the target is T1, GST-JAK2(808-1132) (Homo sapiens, UniProt O60674).
T1 construct: GST-JAK2(808-1132); purchased Invitrogen (Carlsbad, USA) #4288
T1 sequence (O60674 808-1132): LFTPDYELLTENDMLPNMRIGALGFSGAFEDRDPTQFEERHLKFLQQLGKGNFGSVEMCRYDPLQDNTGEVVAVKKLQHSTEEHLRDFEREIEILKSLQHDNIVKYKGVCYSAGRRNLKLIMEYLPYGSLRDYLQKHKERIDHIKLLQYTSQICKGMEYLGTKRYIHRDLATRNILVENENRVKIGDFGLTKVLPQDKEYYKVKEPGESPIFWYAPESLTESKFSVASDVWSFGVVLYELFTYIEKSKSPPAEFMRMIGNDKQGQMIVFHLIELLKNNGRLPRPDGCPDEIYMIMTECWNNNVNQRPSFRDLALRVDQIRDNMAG
The assay is described as follows: JAK2 kinase assay (Caliper mobility shift, LabChip 3000). The class given is biochemical. The text has this: All four kinases of the JAK/TYK-kinase family were used as purified recombinant GST-fusion proteins, containing the active kinase domains. GST-JAK1 (866-1154), GST-JAK3(811-1124), and GST-TYK2(888-1187) were expressed and purified by affinity chromatography at the EPK biology unit. GST-JAK2(808-1132) was purchased from Invitrogen (Carlsbad, USA, #4288).
The kinase assays were based on the Caliper mobility shift assay using the LabChip 3000 systems. This technology is similar to capillary electrophoresis and uses charge driven separation of substrate and product in a microfluidic chip.
All kinase reactions were performed in 384 well microtiter plates in a total reaction volume of 18 μl. The assay plates were prepared with 0.1 μl per well of test compound in the appropriate test concentration, as described under the section “preparation of compound dilutions”. The reactions were started by combining 9 μl of substrate mix (consisting of peptide and ATP) with 9 μl of kinase dilution. The reactions were incubated for 60 minutes at 30° C. and stopped by adding 70 μl of stop buffer (100 mM Hepes, 5% DMSO, 0.1% Coating reagent, 10 mM EDTA, 0.015% Brij 35).
Fluorescently labeled synthetic peptides were used as substrates in all reactions. A peptide derived from the sequence of IRS-1(IRS-1 peptide, SEQ ID NO: 1 FITC-Ahx-KKSRGDYMTMQIG-NH2) was used for JAK1 and TYK2 and a peptide named JAK3tide SEQ ID NO: 2 (FITC-GGEEEEYFELVKKKK-NH2) for JAK2 and JAK3. Specific assay conditions are described in Table1:
The terminated reactions were transferred to the Caliper LabChip 3000 reader and the turnover of each reaction was measured by determining the substrate/product ratio.
Test compounds were dissolved in DMSO (10 mM) and transferred into 1.4 mL flat bottom or V-shaped Matrix tubes carrying a unique 2D matrix chip by individual compound hubs. The numbers of these chips were distinctively linked to the individual compound identification numbers. The stock solutions were stored at −20° C. if not used immediately. For the test procedure the vials were defrosted and identified by a scanner whereby a working sheet was generated that guided the subsequent working steps. Compound dilutions were made in 96 well plates. This format enabled the assay of maximally 40 individual test compounds at 8 concentrations (single points) including 4 reference compounds. The dilution protocol included the production of pre-dilution plates, master plates and assay plates:
Pre-dilution plates: 96 polypropylene well plates were used as pre-dilution plates. A total of 4 pre-dilution plates were prepared including 10 test compounds each on the plate positions A1-A10, one standard compound at A11 and one DMSO control at A12. All dilution steps were done on a HamiltonSTAR robot.
Master plates: 100 μL of individual compound dilutions including standard compound and controls of the 4 “pre-dilution plates” were transferred into a 384 “master plate” including the following concentrations 1,820, […], 182, 54.6, 18.2, 5.46, 1.82 and 0.546 μM, respectively in 90% of DMSO.
Assay plates: Identical assay plates were then prepared by pipetting 100 nL each of compound dilutions of the master plates into 384-well “assay plates”. In the following the compounds were mixed with 9 μL of assays components plus 9 μL enzyme corresponding to a 1:181 dilution steps enabling the final concentration of 10, 3.0, 1.0, 0.3, 0.1, 0.03, 0.01 and 0.003 μM, respectively. The preparation of the master plates were handled by the Matrix PlateMate Plus robot and replication of assay plates by the HummingBird robot.
On to `Cc1ccc(Nc2ncc3ccn(-c4cc(F)c(CN5CCOCC5)c(F)c4)c3n2)cc1CN1CCC2(CCN(C)C2)C1` (centres unmarked) [Example 450, [7-(3,5-Difluoro-4-morpholin-4-ylmethyl-phenyl)-7H-pyrrolo[2,3-d]pyrimidin-2-yl]-[4-methyl-3-(7-methyl-2,7-diaza-spiro[4.4]non-2-ylmethyl)-phenyl]-amine], for which the IC50 (commonly the concentration needed to halve the response being measured) was at most 3 nM.

`COc1cc(Nc2ncc3ccn(-c4ccc(C(=O)NC(C)(C)C)cc4)c3n2)cc(OC)c1OC` [Example 9, N-tert-Butyl-4-[2-(3,4,5-trimethoxy-phenylamino)-pyrrolo[2,3-d]pyrimidin-7-yl]-benzamide]: the IC50 was below 3 nM.

For `O=C(c1ccc(-n2ccc3cnc(Nc4ccc(C(F)(F)F)nc4)nc32)cc1)N1CCOCC1` [Example 236, Morpholin-4-yl-{4-[2-(6-trifluoromethyl-pyridin-3-ylamino)-pyrrolo[2,3-d]pyrimidin-7-yl]-phenyl}-methanone], the IC50 was 46 nM.

With `Cc1cc(C#N)ccc1-n1ccc2cnc(Nc3ccc(N4CCN(C)CC4)nc3)nc21` [Example 439, 3-Methyl-4-{2-[6-(4-methyl-piperazin-1-yl)-pyridin-3-ylamino]-pyrrolo[2,3-d]pyrimidin-7-yl}-benzonitrile], the IC50 was found to be 19 nM.

For the compound `Fc1cc(-n2ccc3cnc(Nc4cccc(CN5CCOCC5)c4)nc32)cc(F)c1CN1CCOCC1` [Example 198, [7-(3,5-Difluoro-4-morpholin-4-ylmethyl-phenyl)-7H-pyrrolo[2,3-d]pyrimidin-2-yl]-(3-morpholin-4-ylmethyl-phenyl)-amine], the IC50 was below 3 nM.

With `CN1CCN(c2ccc(Nc3ncc4ccn(-c5ccc(S(=O)(=O)NC(C)(C)C)cc5)c4n3)cc2)CC1` [Example 348, N-tert-Butyl-4-{2-[4-(4-methyl-piperazin-1-yl)-phenylamino]-pyrrolo[2,3-d]pyrimidin-7-yl}-benzenesulfonamide], the IC50 worked out at 6.2 nM.

On to `COc1ccc(Nc2ncc3ccn(-c4ccc(S(C)(=O)=O)cc4)c3n2)cc1OCCN(C)C` [Example 26, [3-(2-Dimethylamino-ethoxy)-4-methoxy-phenyl]-[7-(4-methanesulfonyl-phenyl)-7H-pyrrolo[2,3-d]pyrimidin-2-yl]-amine], for which the IC50 was below 3 nM.

Regarding `CC(O)c1ccc(-n2ccc3cnc(Nc4ccc(N5CCN(C)CC5)nc4)nc32)cc1` (centres unmarked) [Example 279, 1-(4-{2-[6-(4-Methyl-piperazin-1-yl)-pyridin-3-ylamino]-pyrrolo[2,3-d]pyrimidin-7-yl}-phenyl)-ethanol], the IC50 was found to be 4 nM.

In the case of `Fc1cc(-n2ccc3cnc(Nc4ccc(CN5CCNCC5)cc4)nc32)cc(F)c1CN1CCOCC1` [Example 315, [7-(3,5-Difluoro-4-morpholin-4-ylmethyl-phenyl)-7H-pyrrolo[2,3-d]pyrimidin-2-yl]-(4-piperazin-1-ylmethyl-phenyl)-amine], the IC50 is below 3 nM.

`Fc1cc(-n2ccc3cnc(Nc4ccc(CN5CCN(C6CC6)CC5)cc4)nc32)cc(F)c1CN1CCOCC1` [Example 329, [4-(4-Cyclopropyl-piperazin-1-ylmethyl)-phenyl]-[7-(3,5-difluoro-4-morpholin-4-ylmethyl-phenyl)-7H-pyrrolo[2,3-d]pyrimidin-2-yl]-amine]: the concentration for half-maximal inhibition (IC50) turned out to be 4 nM.

Take `O=C(c1ccc(-n2ccc3cnc(Nc4ccc(C(F)(F)F)nc4)nc32)cc1F)N1CCOCC1` [Example 227, {2-Fluoro-4-[2-(6-trifluoromethyl-pyridin-3-ylamino)-pyrrolo[2,3-d]pyrimidin-7-yl]-phenyl}-morpholin-4-yl-methanone]: the IC50 was 41.5 nM.

For the compound `Fc1cc(-n2ccc3cnc(Nc4ccccn4)nc32)cc(F)c1CN1CCOCC1` [Example 209, [7-(3,5-Difluoro-4-morpholin-4-ylmethyl-phenyl)-7H-pyrrolo[2,3-d]pyrimidin-2-yl]-pyridin-2-yl-amine], the IC50 worked out at 125 nM.

Regarding `CC(=O)N1CCN(Cc2ccc(Nc3ncc4ccn(-c5cc(F)c(CN6CCOCC6)c(F)c5)c4n3)cc2)CC1` [Example 318, 1-(4-{4-[7-(3,5-Difluoro-4-morpholin-4-ylmethyl-phenyl)-7H-pyrrolo[2,3-d]pyrimidin-2-ylamino]-benzyl}-piperazin-1-yl)-ethanone], the IC50 was below 3 nM.

In the case of `CCN1CCN(Cc2ccc(Nc3ncc4ccn(-c5ccc(S(C)(=O)=O)cc5)c4n3)nc2)CC1` [Example 317, [5-(4-Ethyl-piperazin-1-ylmethyl)-pyridin-2-yl]-[7-(4-methanesulfonyl-phenyl)-7H-pyrrolo[2,3-d]pyrimidin-2-yl]-amine], the IC50 turned out to be 940 nM.

Regarding `Cc1ccc(Nc2ncc3ccn(-c4ccc(C(=O)N5CCOCC5)c(F)c4)c3n2)cc1` [Example 324, [2-Fluoro-4-(2-p-tolylamino-pyrrolo[2,3-d]pyrimidin-7-yl)-phenyl]-morpholin-4-yl-methanone], the IC50 was found to be 26 nM.

Take `CN1CCN(c2ccc(Nc3ncc4ccn(-c5ccc(C(O)C6CC6)cc5)c4n3)cn2)CC1` (centres unmarked) [Example 277, Cyclopropyl-(4-{2-[6-(4-methyl-piperazin-1-yl)-pyridin-3-ylamino]-pyrrolo[2,3-d]pyrimidin-7-yl}-phenyl)-methanol]: the IC50 came to 8.3 nM.

Regarding `CCc1ccc(-n2ccc3cnc(Nc4ccc(N5CCN(C)CC5)nc4)nc32)cc1` [Example 438, [7-(4-Ethyl-phenyl)-7H-pyrrolo[2,3-d]pyrimidin-2-yl]-[6-(4-methyl-piperazin-1-yl)-pyridin-3-yl]-amine], the IC50 was at most 3 nM.

Regarding `C[C@@H]1CN(Cc2ccc(Nc3ncc4ccn(-c5cc(F)c(CN6CCOCC6)c(F)c5)c4n3)cc2)C[C@H](C)N1` [Example 254], the IC50 is below 3 nM.

On to `O=C(c1c(F)cc(-n2ccc3cnc(Nc4ccc(CN5CCOCC5)cc4)nc32)cc1F)N1CCOCC1` [Example 206, {2,6-Difluoro-4-[2-(4-morpholin-4-ylmethyl-phenylamino)-pyrrolo[2,3-d]pyrimidin-7-yl]-phenyl}-morpholin-4-yl-methanone], for which the IC50 was below 3 nM.

In the case of `CN1CCN(c2cccc(Nc3ncc4ccn(-c5cc(F)c(C(=O)N6CCOCC6)c(F)c5)c4n3)c2)CC1` [Example 207, (2,6-Difluoro-4-{2-[3-(4-methyl-piperazin-1-yl)-phenylamino]-pyrrolo[2,3-d]pyrimidin-7-yl}-phenyl)-morpholin-4-yl-methanone], the IC50 is below 3 nM.

Regarding `CS(=O)(=O)c1ccc(-n2ccc3cnc(Nc4ccc5c(c4)OC(F)(F)C(F)(F)O5)nc32)cc1` [Example 14, [7-(4-Methanesulfonyl-phenyl)-7H-pyrrolo[2,3-d]pyrimidin-2-yl]-(2,2,3,3-tetrafluoro-2,3-dihydro-benzo[1,4]dioxin-6-yl)-amine], the IC50 amounted to 2100 nM.

Regarding `Cc1ccc(Nc2ncc3ccn(-c4cc(F)c(CN5CCOCC5)c(F)c4)c3n2)cc1` [Example 325, [7-(3,5-Difluoro-4-morpholin-4-ylmethyl-phenyl)-7H-pyrrolo[2,3-d]pyrimidin-2-yl]-p-tolyl-amine], the IC50 was determined as 25 nM.

Turning to `CN1CCN(Cc2ccc(Nc3ncc4ccn(-c5cc(F)c(C(=O)N6CCOCC6)c(F)c5)c4n3)cc2C(F)(F)F)CC1` [Example 204, (2,6-Difluoro-4-{2-[4-(4-methyl-piperazin-1-ylmethyl)-3-trifluoromethyl-phenylamino]-pyrrolo[2,3-d]pyrimidin-7-yl}-phenyl)-morpholin-4-yl-methanone], the IC50 is below 3 nM.

These data come from patent US8420657B2 (Novartis AG, priority 2008, dated 2013).
